# Experimental data as given in ChEMBL document CHEMBL4680158, “C6-O-alkylated 7-deazainosine nucleoside analogues: Discovery of potent and selective anti-sleeping sickness agents” (Eur J Med Chem, 2020).
# Columns and labels:
# [1] = Selectivity index, ratio of EC50 for cytotoxicity against human MRC5 cells to EC50 for antitrypanosomal activity against Trypanosoma brucei rhodesiense; type: toxicity, cell-based; conditions: read-out: Ratio EC50
# [2] = test system: Trypanosoma brucei rhodesiense; assay: Antitrypanosomal activity against Trypanosoma brucei rhodesiense assessed as reduction in parasite growth incubated for 3 days by resazurin dye based fluorescence assay; type: functional, organism-based; conditions: 72 h
# [3] = test system: MRC5; assay: Cytotoxicity against human MRC5 cells assessed as reduction in cell viability incubated for 3 days by resazurin dye based fluorescence assay; conditions: MRC5, 72 h
# [4] = Selectivity index, ratio of EC50 for cytotoxicity against human MRC5 cells to EC50 for antitrypanosomal activity against Trypanosoma brucei brucei; type: toxicity, cell-based; conditions: read-out: Ratio EC50
# [5] = test system: Trypanosoma brucei brucei; assay: Antitrypanosomal activity against Trypanosoma brucei brucei assessed as reduction in parasite growth incubated for 3 days by resazurin dye based fluorescence assay; type: functional, organism-based; conditions: 72 h
# [6] = Resistance factor, ratio of EC50 for antitrypanosomal activity against drug resistant Trypanosoma brucei ISMR1 to antitrypanosomal activity against Trypanosoma brucei brucei Lister 427 blood stream form; type: functional
# [7] = Resistance factor, ratio of EC50 for antitrypanosomal activity against drug resistant Trypanosoma brucei B48 to antitrypanosomal activity against Trypanosoma brucei brucei Lister 427 blood stream form; type: functional
# [8] = Resistance factor, ratio of EC50 for antitrypanosomal activity against drug resistant Trypanosoma brucei harboring TbAT1 deficient to antitrypanosomal activity against Trypanosoma brucei brucei Lister 427 blood stream form; type: functional
# [9] = Inhibition of Trypanosoma brucei P2 transporter assessed as reduction in [3H]-adenosine uptake measured after 60 sec by scintillation counting method
# [10] = test system: Trypanosoma brucei; assay: Antitrypanosomal activity against drug resistant Trypanosoma brucei B48 assessed as reduction in parasite viability incubated for 48 hrs by resazurin dye based fluorescence assay; type: functional, organism-based; conditions: B48, 48 h
# [11] = test system: Trypanosoma brucei; assay: Antitrypanosomal activity against drug resistant Trypanosoma brucei ISMR1 assessed as reduction in parasite viability incubated for 48 hrs by resazurin dye based fluorescence assay; type: functional, organism-based; conditions: ISMR1, 48 h
# [12] = test system: Trypanosoma brucei brucei; assay: Antitrypanosomal activity against Trypanosoma brucei brucei Lister 427 blood stream forms assessed as reduction in parasite viability incubated for 48 hrs by resazurin dye based fluorescence assay; type: functional, organism-based; conditions: Lister 427, 48 h
# [13] = Inhibition of Trypanosoma brucei P1 transporter assessed as reduction in [3H]-adenosine uptake measured after 60 sec by scintillation counting method
# [14] = test system: Trypanosoma brucei; assay: Antitrypanosomal activity against drug resistant Trypanosoma brucei harboring TbAT1 deficient assessed as reduction in parasite viability incubated for 48 hrs by resazurin dye based fluorescence assay; type: functional, organism-based
Structure (SMILES),EC50 [2] [µM],EC50 [5] [µM],selectivity ratio [1],EC50 [3] [µM],selectivity ratio [4],Ratio EC50 [6],Ratio EC50 [7],Ratio EC50 [8],Ki [9] [µM],EC50 [10] [µM],EC50 [11] [µM],EC50 [12] [µM],Ki [13] [µM],EC50 [14] [µM]
O=c1[nH]cnc2c1c(F)cn2[C@@H]1O[C@H](CO)[C@@H](O)[C@H]1O,1.06,0.1,1.9,2.03,21,,,,,,,,,
OC[C@H]1O[C@@H](n2cc(Cl)c3c(OC4CCCC4)ncnc32)[C@H](O)[C@@H]1O,0.12,0.2,326,38.1,191,,,,,,,,,
N=C(N)c1ccc(/N=N/Nc2ccc(C(=N)N)cc2)cc1,,,,,,6.9,16.9,10.6,,,,,,
OC[C@H]1O[C@@H](n2cc(Cl)c3c(OCCc4ccccc4)ncnc32)[C@H](O)[C@@H]1O,0.03,0.095,10.3,0.31,3.3,,,,,,,,,
COc1ncnc2c1c(Cl)cn2[C@@H]1O[C@H](CO)[C@@H](O)[C@H]1O,0.036,0.16,> 888,≥ 32,> 200,0.84,0.57,0.57,149,0.057,0.084,0.1,35.5,0.057
CCCCOc1ncnc2c1c(Cl)cn2[C@@H]1O[C@H](CO)[C@@H](O)[C@H]1O,0.036,0.069,37,1.32,19,,,,,,,,,
O=c1[nH]cnc2c1c(Br)cn2[C@@H]1O[C@H](CO)C[C@H]1O,23,8.1,> 28,> 64,> 7,,,,,,,,,
N=C(N)c1ccc(OCCCCCOc2ccc(C(=N)N)cc2)cc1,,,,,,13.8,94.6,1.8,,,,,,
O=c1[nH]cnc2c1ncn2[C@@H]1O[C@H](CO)C[C@H]1O,6.7,1.1,,> 64,,,,,,,,,,
OC[C@H]1O[C@@H](n2cc(Cl)c3c(OC4CCCCC4)ncnc32)[C@H](O)[C@@H]1O,0.38,0.4,> 168,> 64,> 161,,,,,,,,,
COc1nc(N)nc2c1c(Br)cn2[C@@H]1O[C@H](CO)[C@@H](O)[C@H]1O,0.077,0.13,42,3.24,24,,,,,,,,,
CC[n+]1c(-c2ccccc2)c2cc(N/N=N/c3cccc(C(=N)N)c3)ccc2c2ccc(N)cc21,,,,,,4.8,0.85,1.2,,,,,,
CC(C)Oc1ncnc2c1c(Cl)cn2[C@@H]1O[C@H](CO)[C@@H](O)[C@H]1O,0.1,0.09,> 640,> 64,> 711,1.47,1.02,1.08,246,0.188,0.27,0.184,284,0.198
O=c1[nH]cnc2c1ccn2[C@@H]1O[C@H](CO)[C@@H](O)[C@H]1O [IMMUNICILLIN H],19.1,4.2,1.6,31.3,7.4,,,,,,,,,
O=c1[nH]cnc2c1c(-c1ccccc1)cn2[C@@H]1O[C@H](CO)[C@@H](O)[C@H]1O,9.4,32.2,> 6.8,> 64,> 2,,,,,,,,,
O=c1[nH]cnc2c1c(Br)cn2[C@@H]1O[C@H](CO)[C@@H](O)[C@H]1O,29.2,52.4,22,> 64,> 1.2,,,,,,,,,
Nc1nc2c(ccn2[C@@H]2O[C@H](CO)[C@@H](O)[C@H]2O)c(=O)[nH]1,12.9,> 64,> 5,> 64,,,,,,,,,,
CC(C)COc1ncnc2c1c(Cl)cn2[C@@H]1O[C@H](CO)[C@@H](O)[C@H]1O,0.03,0.071,1670,49.5,694,,,,,,,,,
COc1ncnc2c1c(-c1ccccc1)cn2[C@@H]1O[C@H](CO)[C@@H](O)[C@H]1O,> 64,> 64,,> 64,,,,,,,,,,
CC(C)CCOc1ncnc2c1c(Cl)cn2[C@@H]1O[C@H](CO)[C@@H](O)[C@H]1O,0.029,0.058,> 2200,> 64,> 1100,,,,,,,,,
Cc1ccc(C(=O)Nc2ccc(S(=O)(=O)O)c3cc(S(=O)(=O)O)cc(S(=O)(=O)O)c23)cc1NC(=O)c1cccc(NC(=O)Nc2cccc(C(=O)Nc3cc(C(=O)Nc4ccc(S(=O)(=O)O)c5cc(S(=O)(=O)O)cc(S(=O)(=O)O)c45)ccc3C)c2)c1 [SURAMIN],0.033,0.028,,,,,,,,,,,,
Nc1nc(Cl)c2c(Br)cn([C@@H]3O[C@H](CO)[C@@H](O)[C@H]3O)c2n1,0.047,0.13,847,40.2,316,,,,,,,,,
CCCCCOc1ncnc2c1c(Cl)cn2[C@@H]1O[C@H](CO)[C@@H](O)[C@H]1O,0.032,0.088,3.2,0.1,1.1,,,,,,,,,
Nc1nc2c(c(Br)cn2[C@@H]2O[C@H](CO)[C@@H](O)[C@H]2O)c(=O)[nH]1,0.49,2.01,> 130,> 64,> 31,,,,,,,,,
COc1ncnc2c1c(Br)cn2[C@@H]1O[C@H](CO)[C@@H](O)[C@H]1O,0.036,0.19,> 1780,> 64,> 336,0.85,0.77,0.71,,0.09,0.099,0.117,,0.083
Nc1nc(O)c2ccn([C@@H]3O[C@H](CO)C[C@H]3O)c2n1,> 64,> 64,,> 64,,,,,,,,,,
OC[C@H]1O[C@@H](n2cc(C(F)(F)F)c3c(O)ncnc32)[C@H](O)[C@@H]1O,10.9,> 64,0.3,3.28,0.1,,,,,,,,,
O=c1[nH]cnc2c1c(I)cn2[C@@H]1O[C@H](CO)[C@@H](O)[C@H]1O,23.9,57.3,> 2.7,> 64,> 1.1,,,,,,,,,

# Continued, in another order:
EC50 [2] [µM],EC50 [5] [µM],Structure (SMILES),selectivity ratio [1],EC50 [3] [µM],selectivity ratio [4],Ratio EC50 [6],Ratio EC50 [7],Ratio EC50 [8],Ki [9] [µM],EC50 [10] [µM],EC50 [11] [µM],EC50 [12] [µM],Ki [13] [µM],EC50 [14] [µM]
4.7,> 64,Cc1nc2c(ccn2[C@@H]2O[C@H](CO)[C@@H](O)[C@H]2O)c(=O)[nH]1,> 13,> 64,,,,,,,,,,
> 64,> 64,Nc1ncc2ccn([C@@H]3O[C@H](CO)[C@@H](O)[C@H]3O)c2n1,,> 64,,,,,,,,,,
2.9,29.6,O=c1[nH]cnc2c1ccn2[C@@H]1O[C@H](CO)C[C@H]1O,> 22,> 64,> 2,,,,,,,,,
25.1,10.7,O=c1[nH]cnc2c1c(Cl)cn2[C@@H]1O[C@H](CO)[C@@H](O)[C@H]1O,> 2.5,> 64,> 6,,,,,,,,,
> 64,> 64,COc1ncnc2c1ccn2[C@@H]1O[C@H](CO)C[C@H]1O,,> 64,,,,,,,,,,
0.18,0.49,Nc1nc(Cl)c2ccn([C@@H]3O[C@H](CO)[C@@H](O)[C@H]3O)c2n1,> 347,> 64,> 131,,,,,,,,,
0.22,0.17,COCCOc1ncnc2c1c(Cl)cn2[C@@H]1O[C@H](CO)[C@@H](O)[C@H]1O,18.8,4.13,25,,,,,,,,,
22.3,> 64,COc1ncnc2c1c(-c1ccc(Cl)cc1)cn2[C@@H]1O[C@H](CO)[C@@H](O)[C@H]1O,2.7,61.1,,,,,,,,,,
3.7,2.6,COc1ncnc2c1c(Br)cn2[C@@H]1O[C@H](CO)C[C@H]1O,0.7,2.7,1,,,,,,,,,
0.076,0.081,CCCOc1ncnc2c1c(Cl)cn2[C@@H]1O[C@H](CO)[C@@H](O)[C@H]1O,37,2.81,34,,,,,,,,,
0.053,0.22,COc1ncnc2c1c(I)cn2[C@@H]1O[C@H](CO)[C@@H](O)[C@H]1O,708,38.4,168,,,,,,,,,
0.16,0.13,OC[C@H]1O[C@@H](n2cc(Cl)c3c(OCCOc4ccccc4)ncnc32)[C@H](O)[C@@H]1O,263,43.2,329,,,,,,,,,
